# Results published in patent publication US12043632B2, “6-heteroaryloxy benzimidazoles and azabenzimidazoles as JAK2 inhibitors” (Ajax Therapeutics, Inc., priority 2020, dated 2024).
# Target: T1, JAK2 (JH1domain-catalytic, Y1007F,Y1008F) kinase (Homo sapiens, UniProt O60674, Y1007F/Y1008F)
# T1 construct: JAK2 (JH1domain-catalytic, Y1007F,Y1008F) kinase was expressed as N-terminal fusion; made in house; host or cells: transiently transfected HEK293 cells
# Assay: JAK2 JH1 Domain Binding Assay
# Details: qPCR readout
# T1 sequence (O60674 849-1124 Y1007F/Y1008F limits assumed): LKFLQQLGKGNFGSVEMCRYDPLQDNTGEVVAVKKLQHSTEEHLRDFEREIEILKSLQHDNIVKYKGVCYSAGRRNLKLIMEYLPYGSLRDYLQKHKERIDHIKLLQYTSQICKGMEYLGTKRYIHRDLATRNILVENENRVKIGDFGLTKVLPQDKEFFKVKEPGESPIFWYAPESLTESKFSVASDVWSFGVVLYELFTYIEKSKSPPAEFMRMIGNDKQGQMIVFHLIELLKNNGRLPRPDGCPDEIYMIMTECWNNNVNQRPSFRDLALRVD
row,Compound,Kd [nM]
1,"Cn1c(Nc2ccc(CN3CCC(F)(F)CC3)c(C(F)(F)F)c2)nc2ncc(Oc3cnn4ccncc34)c(Cl)c21 [Example I-173, 7-chloro-N-(4-((4,4-difluoropiperidin-1-yl)methyl)-3-(trifluoromethyl)phenyl)-1-methyl-6-(pyrazolo[1,5-a]pyrazin-3-yloxy)-1H-imidazo[4,5-b]pyridin-2-amine]",10 to 50
2,"Cn1c(Nc2ccc(CN3CCCC(F)(F)C3)c(C(F)(F)F)c2)nc2ncc(Oc3cnn4ccncc34)c(Cl)c21 [Example I-174, 7-chloro-N-(4-((3,3-difluoropiperidin-1-yl)methyl)-3-(trifluoromethyl)phenyl)-1-methyl-6-(pyrazolo[1,5-a]pyrazin-3-yloxy)-1H-imidazo[4,5-b]pyridin-2-amine]",10 to 50
3,"CO[C@H]1CCN(Cc2ccc(Nc3nc4ncc(Oc5cnn6ccncc56)c(Cl)c4n3C)cc2C(F)(F)F)C1 [Example I-175, (S)-7-chloro-N-(4-((3-methoxypyrrolidin-1-yl)methyl)-3-(trifluoromethyl)phenyl)-1-methyl-6-(pyrazolo[1,5-a]pyrazin-3-yloxy)-1H-imidazo[4,5-b]pyridin-2-amine]",10 to 50
4,CNc1nccn2ncc(Oc3cnc4nc(Nc5ccc(CN6CCC(F)(F)C6)c(C(F)(F)F)c5)n(C)c4c3Cl)c12 [Example I-184],50 to 1000
5,"Cn1c(Nc2cc(C(C)(C)C)n(C3CC4(COC4)C3)n2)nc2ncc(Oc3cnn4ccncc34)c(C#N)c21 [Example I-187, 2-((5-(tert-butyl)-1-(2-oxaspiro[3.3]heptan-6-yl)-1H-pyrazol-3-yl)amino)-1-methyl-6-(pyrazolo[1,5-a]pyrazin-3-yloxy)-1H-imidazo[4,5-b]pyridine-7-carbonitrile]",10 to 50
6,"CNc1nccn2ncc(Oc3cnc4nc(Nc5ccc(CN6CC(F)C6)c(C(F)(F)F)c5)n(C)c4c3Cl)c12 [Example I-189, 7-chloro-N-(4-((3-fluoroazetidin-1-yl)methyl)-3-(trifluoromethyl)phenyl)-1-methyl-6-((4-(methylamino)pyrazolo[1,5-a]pyrazin-3-yl)oxy)-1H-imidazo[4,5-b]pyridin-2-amine]",10 to 50
7,"CNc1nccn2ncc(Oc3cnc4nc(Nc5ccc(CN6CC(OC)C6)c(C(F)(F)F)c5)n(C)c4c3Cl)c12 [Example I-190, 7-chloro-N-(4-((3-methoxyazetidin-1-yl)methyl)-3-(trifluoromethyl)phenyl)-1-methyl-6-((4-(methylamino)pyrazolo[1,5-a]pyrazin-3-yl)oxy)-1H-imidazo[4,5-b]pyridin-2-amine]",10 to 50
8,"CNc1nccn2ncc(Oc3cnc4nc(Nc5ccc(CN6CC[C@H](OC)C6)c(C(F)(F)F)c5)n(C)c4c3Cl)c12 [Example I-191, (S)-7-chloro-N-(4-((3-methoxypyrrolidin-1-yl)methyl)-3-(trifluoromethyl)phenyl)-1-methyl-6-((4-(methylamino)pyrazolo[1,5-a]pyrazin-3-yl)oxy)-1H-imidazo[4,5-b]pyridin-2-amine]",10 to 50
9,CNc1nccn2ncc(Oc3cnc4nc(Nc5ccc(CN6CC[C@@H](OC)C6)c(C(F)(F)F)c5)n(C)c4c3Cl)c12 [Example I-192],10 to 50
10,"Cn1c(C#N)c(C(F)(F)F)cc(Nc2nc3ncc(Oc4cnn5ccncc45)c(Cl)c3n2C)c1=O [Example I-200, 5-((7-chloro-1-methyl-6-(pyrazolo[1,5-a]pyrazin-3-yloxy)-1H-imidazo[4,5-b]pyridin-2-yl)amino)-1-methyl-6-oxo-3-(trifluoromethyl)-1,6-dihydropyridine-2-carbonitrile]",10 to 50
11,"CNc1nccn2ncc(Oc3cnc4nc(Nc5cc(C(F)(F)C(F)(F)F)cn(C)c5=O)n(C)c4c3Cl)c12 [Example I-201, 3-((7-chloro-1-methyl-6-((4-(methylamino)pyrazolo[1,5-a]pyrazin-3-yl)oxy)-1H-imidazo[4,5-b]pyridin-2-yl)amino)-1-methyl-5-(perfluoroethyl)pyridin-2(1H)-one]",< 10

# The remaining lines, values ahead:
row,Kd [nM],Compound
1,< 10,"CO[C@@H]1CCN(Cc2ccc(Nc3nc4ncc(Oc5cnn6ccncc56)c(Cl)c4n3C)cc2C(F)(F)F)C1 [Example I-176, (R)-7-chloro-N-(4-((3-methoxypyrrolidin-1-yl)methyl)-3-(trifluoromethyl)phenyl)-1-methyl-6-(pyrazolo[1,5-a]pyrazin-3-yloxy)-1H-imidazo[4,5-b]pyridin-2-amine]"
2,< 10,"Cn1cc(C(F)(F)F)cc(Nc2nc3ncc(Oc4cnn5ccncc45)c(Cl)c3n2C)c1=O [Example I-177, 3-((7-chloro-1-methyl-6-(pyrazolo[1,5-a]pyrazin-3-yloxy)-1H-imidazo[4,5-b]pyridin-2-yl)amino)-1-methyl-5-(trifluoromethyl)pyridin-2(1H)-one]"
3,< 10,"CNc1nccn2ncc(Oc3cnc4nc(Nc5cc(C(F)(F)F)cn(C6CC6)c5=O)n(C)c4c3Cl)c12 [Example I-178, 3-((7-chloro-1-methyl-6-((4-(methylamino)pyrazolo[1,5-a]pyrazin-3-yl)oxy)-1H-imidazo[4,5-b]pyridin-2-yl)amino)-1-cyclopropyl-5-(trifluoromethyl)pyridin-2(1H)-one]"
4,< 10,"CNc1nccn2ncc(Oc3cnc4nc(Nc5cc(C(F)(F)F)cn(-c6cccnc6)c5=O)n(C)c4c3Cl)c12 [Example I-179, 3-((7-chloro-1-methyl-6-((4-(methylamino)pyrazolo[1,5-a]pyrazin-3-yl)oxy)-1H-imidazo[4,5-b]pyridin-2-yl)amino)-5-(trifluoromethyl)-2H-[1,3′-bipyridin]-2-one]"
5,< 10,"Cc1cn(-c2cc(Nc3nc4ncc(Oc5cnn6ccncc56)c(Cl)c4n3C)cc(C(F)(F)F)c2)cn1 [Example I-180, 7-chloro-1-methyl-N-(3-(4-methyl-1H-imidazol-1-yl)-5-(trifluoromethyl)phenyl)-6-(pyrazolo[1,5-a]pyrazin-3-yloxy)-1H-imidazo[4,5-b]pyridin-2-amine]"
6,< 10,"CO[C@H]1CCN(Cc2cc(Nc3nc4ncc(Oc5cnn6ccncc56)c(Cl)c4n3C)cc(C(F)(F)F)c2)C1 [Example I-181, (S)-7-chloro-N-(3-((3-methoxypyrrolidin-1-yl)methyl)-5-(trifluoromethyl)phenyl)-1-methyl-6-(pyrazolo[1,5-a]pyrazin-3-yloxy)-1H-imidazo[4,5-b]pyridin-2-amine]"
7,< 10,"CO[C@@H]1CCN(Cc2cc(Nc3nc4ncc(Oc5cnn6ccncc56)c(Cl)c4n3C)cc(C(F)(F)F)c2)C1 [Example I-182, (R)-7-chloro-N-(3-((3-methoxypyrrolidin-1-yl)methyl)-5-(trifluoromethyl)phenyl)-1-methyl-6-(pyrazolo[1,5-a]pyrazin-3-yloxy)-1H-imidazo[4,5-b]pyridin-2-amine]"
8,< 10,"Cn1c(Nc2cc(C(F)(F)F)cn(CCO)c2=O)nc2ncc(Oc3cnn4ccc(N5CCOCC5)cc34)c(Cl)c21 [Example I-183, 3-((7-chloro-1-methyl-6-((5-morpholinopyrazolo[1,5-a]pyridin-3-yl)oxy)-1H-imidazo[4,5-b]pyridin-2-yl)amino)-1-(2-hydroxyethyl)-5-(trifluoromethyl)pyridin-2(1H)-one]"
9,< 10,"CCc1cc(Nc2nc3ncc(Oc4cnn5ccncc45)c(Cl)c3n2C)cc(C(=O)N2CCC2)n1 [Example I-188, Azetidin-1-yl(4-((7-chloro-1-methyl-6-(pyrazolo[1,5-a]pyrazin-3-yloxy)-1H-imidazo[4,5-b]pyridin-2-yl)amino)-6-ethylpyridin-2-yl)methanone]"
10,< 10,"CNc1nccn2ncc(Oc3cnc4nc(Nc5cc(C(F)(F)F)cn(C)c5=O)n(C)c4c3C#N)c12 [Example I-193, 1-methyl-2-((1-methyl-2-oxo-5-(trifluoromethyl)-1,2-dihydropyridin-3-yl)amino)-6-((4-(methylamino)pyrazolo[1,5-a]pyrazin-3-yl)oxy)-1H-imidazo[4,5-b]pyridine-7-carbonitrile]"
11,< 10,"Cn1c(Nc2cc(CN3CCOCC3)cc(C(F)(F)F)c2)nc2ncc(Oc3cnn4ccncc34)c(Cl)c21 [Example I-194, 7-chloro-1-methyl-N-(3-(morpholinomethyl)-5-(trifluoromethyl)phenyl)-6-(pyrazolo[1,5-a]pyrazin-3-yloxy)-1H-imidazo[4,5-b]pyridin-2-amine]"
12,< 10,"Cn1c(Nc2cc(CN3CC(F)C3)cc(C(F)(F)F)c2)nc2ncc(Oc3cnn4ccncc34)c(Cl)c21 [Example I-195, 7-chloro-N-(3-((3-fluoroazetidin-1-yl)methyl)-5-(trifluoromethyl)phenyl)-1-methyl-6-(pyrazolo[1,5-a]pyrazin-3-yloxy)-1H-imidazo[4,5-b]pyridin-2-amine]"
13,< 10,"COC1CN(Cc2cc(Nc3nc4ncc(Oc5cnn6ccncc56)c(Cl)c4n3C)cc(C(F)(F)F)c2)C1 [Example I-196, 7-chloro-N-(3-((3-methoxyazetidin-1-yl)methyl)-5-(trifluoromethyl)phenyl)-1-methyl-6-(pyrazolo[1,5-a]pyrazin-3-yloxy)-1H-imidazo[4,5-b]pyridin-2-amine]"
14,< 10,"Cn1c(Nc2cc(CN3CCC(F)(F)C3)cc(C(F)(F)F)c2)nc2ncc(Oc3cnn4ccncc34)c(Cl)c21 [Example I-197, 7-chloro-N-(3-((3,3-difluoropyrrolidin-1-yl)methyl)-5-(trifluoromethyl)phenyl)-1-methyl-6-(pyrazolo[1,5-a]pyrazin-3-yloxy)-1H-imidazo[4,5-b]pyridin-2-amine]"
15,< 10,"COC1CCN(Cc2cc(Nc3nc4ncc(Oc5cnn6ccncc56)c(Cl)c4n3C)cc(C(F)(F)F)c2)CC1 [Example I-198, 7-chloro-N-(3-((4-methoxypiperidin-1-yl)methyl)-5-(trifluoromethyl)phenyl)-1-methyl-6-(pyrazolo[1,5-a]pyrazin-3-yloxy)-1H-imidazo[4,5-b]pyridin-2-amine]"
16,< 10,"CNc1nccn2ncc(Oc3cnc4nc(Nc5cc(C6CC6)nn(C)c5=O)n(C)c4c3Cl)c12 [Example I-199, 4-((7-chloro-1-methyl-6-((4-(methylamino)pyrazolo[1,5-a]pyrazin-3-yl)oxy)-1H-imidazo[4,5-b]pyridin-2-yl)amino)-6-cyclopropyl-2-methylpyridazin-3(2H)-one]"
